Test results: PMC12163635, “Synthetic Retinoids for the Modulation of Genomic and Nongenomic Processes in Neurodegenerative Diseases” (ACS Omega, 2025)
“Also recorded” adds a separate entry of the source.

Tests used:
RARγ = target: T1, RARγ (Homo sapiens, UniProt P13631); assay: Fluorescence competition binding assay (displacement of DC271); settings: for Kd: 100 nM RAR and DC271 on plate, read-out: Binding KD (± SD) RARγ; for ΔGEXP RARγ: experimental binding free energy from K D, ΔGexp=−RT ln K, 298.1 K
T1 construct: His6-3C-SUMO (cleaved yes); made in house; host or cells: E. coli BL21(DE3), pOPINS3C vector
T1 sequence (P13631 185-419 limits assumed): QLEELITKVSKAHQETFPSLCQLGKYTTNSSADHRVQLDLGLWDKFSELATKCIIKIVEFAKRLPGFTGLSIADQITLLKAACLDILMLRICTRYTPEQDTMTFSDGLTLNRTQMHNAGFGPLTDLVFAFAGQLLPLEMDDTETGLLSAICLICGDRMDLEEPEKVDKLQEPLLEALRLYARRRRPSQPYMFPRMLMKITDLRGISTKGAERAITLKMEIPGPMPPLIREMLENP
Method: (§1) Fluorescence competition assays were employed to determine the relative binding affinities of each synthetic retinoid toward the LBD of the RARs. The assay is based on the potential for competitive displacement of the inherently fluorescent retinoid DC271 from the LBP by a test nonfluorescent synthetic retinoid. Changes in the fluorescence were measured following the addition of a serial dilution of the test compound and the results were plotted to generate a binding curve. […] Assays were performed for both RARα and RARγ. […] Nonlinear least-squares regression analyses were performed to calculate binding affinities and reported as binding K D, the equilibrium dissociation constant between the RAR isoform and the test synthetic retinoid.
(§2) RARα/γ proteins were expressed in BL21(DE3) cells (NEB) transformed into pET50b (Novagen) and pOPINS3C vectors, respectively, carrying the gene construct and containing a His6-3C-NusA tag or His6-3C-SUMO tag used for solubility. Transformations were carried out under standard conditions using Quick Transformation Protocol (New England Biolabs). Successful transformants were grown overnight in 2xYT media (Melford) and frozen for storage at −80 °C in 50% glycerol. Expression cultures were inoculated from glycerol stocks into 25 mL of 2xYT media (Melford) with 50 μg/mL kanamycin or 100 μg/mL ampicillin (Sigma-Aldrich) and grown overnight with shaking (37 °C, 150 rpm). The overnight cultures were transferred into 1 L expression flasks (2xYT/ampicillin 100 μg/mL or 2xYT/kanamycin 50 μg/mL) and grown with shaking at 37 °C, 150 rpm. Induction was carried out at an OD600 of 0.6–0.8, with 1 mL of 1 M IPTG (1 mM in culture), before shaking overnight (20 h) at 18 °C. The resulting cultures were spun down into pellets using an Avanti Hi-Speed centrifuge (JLA 8.1000, 4000 rpm, 30 min, 4 °C), before the supernatant was removed and the bacterial pellet were frozen at −80 °C.
(§3) RARα/γ (pET50b or pOPINS3C, BL21(DE3) (NEB)) were resuspended from pellet with 20 mL Wash Buffer (20 mM Tris-HCl, 300 mM NaCl and 20 mM imidazole, pH 8) and the resulting suspension was sonicated on ice (40% power, 2 min, repeated twice with 1 min rest in-between) before centrifuging (Avanti Hi-Speed JA25.50, 20,000 rpm, 1 h, 4 °C). Supernatants were clarified using 0.45 μm syringe filters (Thermo Fisher Scientific). Affinity chromatography and size-exclusion (SEC) chromatography were carried out on AKTA Pure25 (Cytiva). Supernatants were loaded onto the HisTrap HP column (5 mL, Cytiva) and washed using 25 mL of wash Buffer. The column was washed with Wash Buffer until UV trace returned to baseline, before RARα/γ was eluted using a gradient of Elution Buffer (20 mM Tris-HCl, 300 mM NaCl, 500 mM imidazole pH 8). The resulting protein-containing fractions were analyzed by SDS-PAGE (200 V, 30 min) using SurePAGE Bis-Tris 12% precast gels (Genscript). Protein concentrations were estimated using absorbance at 280 nm on a DS-11 spectrophotometer (Denovix) with calculated molecular weights and extinction coefficients (Expasy). RAR proteins were cleaved overnight from 3C-NusA tag or 3C-SUMO-His tag using 1 Unit/100 μg protein of HRV3C protease (Thermo Fisher Scientific) at 4 °C. Solution after digestion was loaded onto a HiLoad 16/600 Superdex 75 prep-grade column (Cytiva) and cleaved RARα/γ was separated from the tag based on molecular weight and eluted from the column using SEC Buffer (20 mM Tris-HCl, 300 mM NaCl and 0.5 mM TCEP, pH 8) into 2 mL fractions. The resulting protein fractions were analyzed by SDS PAGE (200 V, 30 min) using SurePAGE Bis-Tris 12% precast gels (Genscript), before being concentrated to 5 mg/mL using centrifugal concentrators (Sartorius) and frozen at −80 °C in small aliquots for use in binding assays.

SH-SY5Y cells = assay: Neurite outgrowth; type: cell-based, human; settings: 5 days; for induction of neurite outgrowth compared with ATRA: 10 nM; for fold induction at 0.01 µM: Homo sapiens, SH-SY5Y, 120 h, read-out: fold increase in neurite outgrowth
Method: Following the characterization of retinoids for their genomic and nongenomic activities, the ability of retinoids to differentiate and induce neurite outgrowth in the neuroblastoma cell line, SH-SY5Y cells, was examined (Figure ). Neurite outgrowth can be induced in this cell line by ATRA at 10 μM.
SH-SY5Y cell line as used in ERK phosphorylation and neurite outgrowth assays described below. The cells were grown in DMEM containing 10% FCS at 37 °C with 5% CO2. The medium was changed three times a week and the cells were passaged at 70% confluence using 0.05% trypsin-EDTA.
SH-SY5Y cells were plated at 10,000 cells/well in 12-well plates containing 16 mm acid-treated/poly L-lysine-coated glass coverslips. After 24 h, retinoids were added to the medium and tested at two different concentrations, 10 μM and 10 nM, with a final DMSO concentration of 0.01 or 0.0001%, respectively. The plates were incubated for 5 days at 5% CO2/37 °C. All retinoid concentrations were tested in triplicate. Cells were fixed using 4% paraformaldehyde and stained for β-III tubulin (1:1000; Sigma). For each neurite outgrowth experiment, 3 coverslips (in 3 wells) were used. ImageJ software with the NeuronJ plugin was used to quantify neurite outgrowth on stained cells in each of the 10 randomly selected images of each coverslip taken using a Nikon Eclipse E400 fluorescence microscope. The average neurite length was calculated for each image by dividing total neurite length by the total number of neurites per image.
All data are presented as mean ± SEM of three independent experiments with biological triplicates. Statistical analyses were performed in Microsoft Office Excel 2019 or GraphPad Prism 7.0c version (Prism, GraphPad Software, San Diego, CA). Neurite outgrowth data were analyzed by one-way ANOVA with Newman-Keuls multiple comparison test as appropriate; P value <0.05 was considered statistically significant. *P < 0.05, **P < 0.01. Data for X-Gal and ERK1/2 phosphorylation were analyzed using sigmoidal dose–response analysis of log (agonist) versus response curve (stimulation).

RARα = assay: Fluorescence competition binding assay (displacement of DC271); design: species or system human; settings: log-log plot of K D for RARα and RARγ
Method: as §1, §2, §3

[1] = 10 nM compound, in comparison to nontreated cells

Chain of RARα (P10276 182-417): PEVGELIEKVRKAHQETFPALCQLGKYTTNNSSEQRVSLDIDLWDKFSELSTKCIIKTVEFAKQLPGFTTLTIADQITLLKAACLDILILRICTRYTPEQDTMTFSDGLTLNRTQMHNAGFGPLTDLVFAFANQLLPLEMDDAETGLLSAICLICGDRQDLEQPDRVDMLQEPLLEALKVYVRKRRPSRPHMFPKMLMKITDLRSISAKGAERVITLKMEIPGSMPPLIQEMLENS

Row | Structure (SMILES) | Kd (RARγ) [nM] | ΔGEXP RARγ (RARγ) [kcal/mol] | induction of neurite outgrowth compared with ATRA (SH-SY5Y cells) | fold induction at 0.01 µM (SH-SY5Y cells; [1]) | binding preference RARα versus RARγ (from K D) (RARα) | fold increase in neurite outgrowth (SH-SY5Y cells; [1])
1 | CC1(C)CCC(C)(C)c2cc(C#Cc3ccc(C(=O)O)cn3)ccc21 [Compound 23, 6-[2-(5,5,8,8-Tetramethyl-5,6,7,8-tetrahydronaphthalen-2-yl)ethynyl]pyridine-3-carboxylic Acid] | 24.3 | -10.4 | significantly induced neurite outgrowth compared to ATRA | 1.9 | close to the plotted line representing equal binding affinity for RARα and RARγ | –
2 | CC1(C)CCC(C)(C)c2cc(C#Cc3ccc(C(=O)O)nc3)ccc21 [Compound 24, 5-[2-(5,5,8,8-Tetramethyl-5,6,7,8-tetrahydronaphthalen-2-yl)ethynyl]pyridine-2-carboxylic Acid] | 254 | -9.00 | significantly induced neurite outgrowth compared to ATRA | 2.2 | bind RARα preferentially over RARγ | –
3 | Cc1cc2c(cc1C#Cc1ccc(C(=O)O)cn1)C(C)(C)CCC2(C)C [Compound 26, 6-[2-(3,5,5,8,8-Pentamethyl-5,6,7,8-tetrahydronaphthalen-2-yl)ethynyl]pyridine-3-carboxylic Acid] | 90.5 | -9.61 | unable to induce neurite outgrowth | – | bind RARα preferentially over RARγ | no response
4 | COc1cc2c(cc1C#Cc1ccc(C(=O)O)cn1)C(C)(C)CCC2(C)C [Compound 27, 6-[2-(3-Methoxy-5,5,8,8-tetramethyl-5,6,7,8-tetrahydronaphthalen-2-yl)ethynyl]pyridine-3-carboxylic Acid] | 2150 | -7.76 | – | 1.7 | close to the plotted line representing equal binding affinity for RARα and RARγ | –
5 | Cc1cc2c(cc1C#Cc1ncc(C(=O)O)cn1)C(C)(C)CCC2(C)C [Compound 28, 2-[2-(3,5,5,8,8-Pentamethyl-5,6,7,8-tetrahydronaphthalen-2-yl)ethynyl]pyrimidine-5-carboxylic Acid] | 750 | -8.36 | induced neurite outgrowth but not significantly compared to ATRA | – | bind RARα preferentially over RARγ | –
6 | CC1(C)CCC(C)(C)c2nc(C#Cc3ccc(C(=O)O)cc3)cnc21 [Compound 30, 4-[2-(5,5,8,8-Tetramethyl-5,6,7,8-tetrahydroquinoxalin-2-yl)ethynyl]benzoic Acid] | 217 | -9.09 | significantly induced neurite outgrowth compared to ATRA; also recorded: even higher activity compared to EC23 and GZ25 | 2.3 | close to the plotted line representing equal binding affinity for RARα and RARγ | –
7 | CC1(C)CCC(C)(C)c2nc(C#Cc3ccc(C(=O)O)cc3F)cnc21 [Compound 31, 3-Fluoro-4-[2-(5,5,8,8-tetramethyl-5,6,7,8-tetrahydroquinoxalin-2-yl)ethynyl]benzoic Acid] | 142 | -9.38 | induced neurite outgrowth but not significantly compared to ATRA | – | bind RARγ stronger than RARα | –
8 | Cc1sc(-c2ccc(C(=O)O)cc2)nc1-c1cnc2c(n1)C(C)(C)CCC2(C)C [Compound 40, 4-[5-Methyl-4-(5,5,8,8-tetramethyl-5,6,7,8-tetrahydroquinoxalin-2-yl)-1,3-thiazol-2-yl]benzoic Acid] | 655 | -8.44 | – | 1.9 | close to the plotted line representing equal binding affinity for RARα and RARγ | –
9 | Cc1sc(-c2ccc(C(=O)O)c(F)c2)nc1-c1cnc2c(n1)C(C)(C)CCC2(C)C [Compound 42, 2-Fluoro-4-[5-methyl-4-(5,5,8,8-tetramethyl-5,6,7,8-tetrahydroquinoxalin-2-yl)-1,3-thiazol-2-yl]benzoic Acid] | 133 | -9.46 | – | 1.7 | close to the plotted line representing equal binding affinity for RARα and RARγ | –
10 | Cc1sc(-c2ccc(C(=O)O)cc2F)nc1-c1cnc2c(n1)C(C)(C)CCC2(C)C [Compound 43, 3-Fluoro-4-[5-methyl-4-(5,5,8,8-tetramethyl-5,6,7,8-tetrahydroquinoxalin-2-yl)-1,3-thiazol-2-yl]benzoic Acid] | 2710 | -7.74 | – | 1.8 | close to the plotted line representing equal binding affinity for RARα and RARγ | –
